The values that follow come from PMC3316592, “Functional Analysis of General Odorant Binding Protein 2 from the Meadow Moth, Loxostege sticticalis L. (Lepidoptera: Pyralidae)” (PLoS ONE, 2012).

In one assay the target is recombinant LstiGOBP2 (Loxostege sticticalis, UniProt C6ZDA6). The assay is described as follows: biochemical. Type of assay: binding. The settings on record: for binding to LstiGOBP2 (in words): competitive displacement of 1-NPN. As for the experimental part:
Fluorescence spectra were recorded in a right angle configuration on a Lengguang 970 CRT spectrofluorimeter (Shanghai Jingmi, China) at room temperature using a 1-cm light path fluorimeter quartz cuvette. Slit widths of 10 nm were selected for both excitation and emission. The spectra data were processed using 970 CRT 2.0l software.
N-phenyl-1-naphthylamine (1-NPN) was dissolved in methanol to yield a 1 mM stock solution. […] 1-NPN was excited at 337 nm and emission spectra were recorded between 350 and 600 nm. Spectra were recorded with high-speed scanning. All ligands used in competition experiments were dissolved in spectrophotometric-grade methanol. Binding data were collected in three independent measurements.
Bound ligand was evaluated from the values of fluorescence intensity assuming that the protein was 100% active, with a stoichiometry of 1∶1 (protein∶ligand) at saturation. The K1-NPN values were estimated using Prism 5 (GraphPad Software, Inc.) by nonlinear regression for a unique site of binding. The curves were linearized using Scatchard plots.

In another assay the test system is L. sticticalis antennae. The assay is described as follows: Electroantennogram (EAG) recording. The settings on record: 10 mg/ml in hexane, adult antennae. Set-up: species or system Loxostege sticticalis. As for the experimental part: Antennae of adult moths were excised at the base and immediately placed on an EAG Micromanipulator MP-15 (Syntech) platform for EAG. Antennae were attached to two electrode holders with non-drying clay (Spectra 360 Electrode Gel). […] Pure chemicals were diluted with hexane to a final concentration of 10 mg/ml. EAG signals were amplified, monitored, and analyzed with EAG-Pro software (Syntech). The preparation was held in a humidified air stream delivered by a Syntech stimulus controller (CS-55 model; Syntech) at 500 ml/min, to which a stimulus pulse of 40 ml/min was added for […]. Signals were recorded for 10 sec, beginning at 2 sec before the onset of the stimulus pulse. An aliquot (10 µl) of each stimulus was loaded onto a filter paper strip. After each sample was tested, hexane was tested as a control. EAG responses of at least three antennae were recorded.

A further assay has as its system LstiGOBP1. Set-up: method as in earlier work. The settings on record: cited from earlier work.
Setting [1] is: read-out: Int (fluorescence intensity as percent of the initial fluorescence).
The mark [2] stands for this setting: at ligand concentration 20 µM, protein 2 µM, 1-NPN probe, read-out: Int (fluorescence intensity as percent of the initial fluorescence).
Setting [3] is: IC50 (concentration of ligand halving the initial fluorescence intensity), protein 2 µM, 1-NPN probe, ligand titrated to 2–50 µM in methanol.
The mark [4] stands for this setting: Ki (relative dissociation constant), calculated from IC50: Ki = [IC50]/1+[1-NPN]/K1-NPN.
Where [5] appears, read: read-out: Int (fluorescence intensity as percent of the initial fluorescence), at ligand concentration 20 µM, protein 2 µM, 1-NPN probe.
[6] abbreviates: calculated from IC50: Ki = [IC50]/1+[1-NPN]/K1-NPN, read-out: Ki (relative dissociation constant).
The mark [7] stands for this setting: protein 2 µM, 1-NPN probe, ligand titrated to 2–50 µM in methanol, read-out: IC50 (concentration of ligand halving the initial fluorescence intensity).

Several values for one entry are separate records, joined by “and”; a condition that tells them apart may be missing. Identical values can stand only once. Entries after “also recorded” stand apart in the source; their conditions may differ. Like-named read-outs stand apart in the source and are kept apart here. Bounds are passed on as bounds.

The term Ki denotes the equilibrium dissociation constant of an inhibitor or competing ligand from its target.

recombinant LstiGOBP2, sequence (C6ZDA6 entry or part of it): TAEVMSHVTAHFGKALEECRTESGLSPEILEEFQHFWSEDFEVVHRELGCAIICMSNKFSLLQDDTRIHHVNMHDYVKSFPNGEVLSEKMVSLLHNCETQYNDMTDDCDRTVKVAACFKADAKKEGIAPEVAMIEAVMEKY

Take `CCCCCC=O` [1-Hexanal]: at recombinant LstiGOBP2, the IC50 amounted to 12.5 µM, the Ki amounted to 7.3 µM and the “binding to LstiGOBP2 (in words)” value is listed as “high affinities”. Further, at recombinant LstiGOBP2 (setting [1]), the activity at 20 µM came out at 36%.
Regarding `CCC/C=C\CO` [Cis-2-hexen-1-ol], on recombinant LstiGOBP2, the IC50 is 24 µM and the Ki was 14.1 µM. Besides, the activity at 20 µM on recombinant LstiGOBP2 (setting [2]) was determined as 59%.
As for `CC(=O)CCC=C(C)C` [6-Methyl-5-hepten-2-one], the IC50 at recombinant LstiGOBP2 (setting [3]) was determined as 28 µM. In addition, the Ki on recombinant LstiGOBP2 (setting [4]) is 16.5 µM. In addition, the activity at 20 µM at recombinant LstiGOBP2 (setting [5]) worked out at 64%.
In the case of `CC/C=C\CCOC(C)=O` [Cis-3-hexenyl acetate], the activity at 20 µM at recombinant LstiGOBP2 (setting [2]) is 57%. Besides, at recombinant LstiGOBP2 (setting [6]), the Ki is 17.1 µM. In addition, on recombinant LstiGOBP2 (setting [7]), the IC50 came to 29 µM.
Consider `O=C/C=C/c1ccccc1` [Cinnamaldehyde], for which the “EAG response (in words)” value with L. sticticalis antennae is recorded as “weak response”. For the same compound, the IC50 on recombinant LstiGOBP2 (setting [3]) came to 17 µM. Further, at recombinant LstiGOBP2 (setting [4]), the Ki was 10 µM. Moreover, the activity at 20 µM on recombinant LstiGOBP2 (setting [5]) was 45%.
On to `C=C1C2CCC(C2)C1(C)C` (stereo not shown) [Camphene], for which, at recombinant LstiGOBP2 (setting [7]), the IC50 is 23 µM. Also, at recombinant LstiGOBP2 (setting [1]), the activity at 20 µM is 54%.
As for `CCC/C=C/C=O` [Trans-2-hexenal], the “EAG response (in words)” value with L. sticticalis antennae is recorded as “high EAG response”. In addition, on recombinant LstiGOBP2, the IC50 was 10.5 µM, the Ki was 6.2 µM and the “binding to LstiGOBP2 (in words)” value is reported as “high binding affinities”.
As to `CCCCCCC=O` [1-Heptanal], on recombinant LstiGOBP2, the IC50 was 24 µM. In addition, the Ki at recombinant LstiGOBP2 (setting [6]) is 14.1 µM. The activity at 20 µM at recombinant LstiGOBP2 (setting [1]) is 52%.
`C=CC(O)CCCCC` (stereo not shown) [1-Octen-3-ol]: the “EAG response (in words)” value in the assay on L. sticticalis antennae was “strong responses; also recorded: intensive responses”. In addition, the “binding to LstiGOBP1 (in words)” value with LstiGOBP1 is recorded as “present an affinity”.
With `CC(=O)/C=C/C1C(C)=CCCC1(C)C` (stereo not drawn) [α-ionone], in the assay on L. sticticalis antennae, the “EAG response (in words)” value is “weak effects; also recorded: failed to elicit a strong electrophysiological response”. Further, the IC50 on recombinant LstiGOBP2 (setting [3]) amounted to 8 µM. Also, the Ki at recombinant LstiGOBP2 (setting [4]) is 4.7 µM. In addition, the “binding to LstiGOBP2 (in words)” value on recombinant LstiGOBP2 was “strongest affinities”. Besides, the activity at 20 µM on recombinant LstiGOBP2 (setting [5]) came to 39%.
As for `C=C(C)[C@H]1CC=C(C)CC1` [R-(+)-Limonene], the “EAG response (in words)” value in the assay with L. sticticalis antennae is on record as “strong responses”. For the same compound, on recombinant LstiGOBP2, the “binding to LstiGOBP2 (in words)” value is on record as “do not show affinities”. For the same compound, the “binding to LstiGOBP1 (in words)” value with LstiGOBP1 is “do not show affinities”.
With `COC(=O)c1ccccc1C(=O)OC` [Dimethyl phthalate], at recombinant LstiGOBP2 (setting [3]), the IC50 was 20 µM and 36 µM. Further, the Ki on recombinant LstiGOBP2 (setting [4]) is 11.8 µM and 21.2 µM. The “Int (fluorescence intensity as percent of the initial fluorescence)” value on recombinant LstiGOBP2 (at ligand concentration 20 µM, protein 2 µM, 1-NPN probe, 20 µM) stood at 64%. The activity at 20 µM at recombinant LstiGOBP2 (setting [5]) stood at 50%.
As for `CC(C)=CCCC(C)O` (stereo not shown) [6-Methyl-5-hepten-2-ol], the activity at 20 µM at recombinant LstiGOBP2 (setting [2]) amounted to 63%. Besides, at recombinant LstiGOBP2 (setting [6]), the Ki is 16.5 µM. Besides, the IC50 at recombinant LstiGOBP2 (setting [7]) is 28 µM.
Consider `c1ccc2scnc2c1` [Benzothiazole], for which, on recombinant LstiGOBP2, the IC50 is 22 µM and the Ki is 12.9 µM. At recombinant LstiGOBP2 (setting [1]), the activity at 20 µM was 52%.
As to Iso-octanol, the “Int (fluorescence intensity as percent of the initial fluorescence)” value on recombinant LstiGOBP2 (at ligand concentration 20 µM, protein 2 µM, 1-NPN probe) came to 58%. The inhibitory constant (Ki) on recombinant LstiGOBP2 (setting [6]) was 16.5 µM. In addition, the IC50 on recombinant LstiGOBP2 (setting [7]) turned out to be 28 µM.
For `COC(=O)c1ccccc1O` [Methyl salicylate], the IC50 on recombinant LstiGOBP2 was more than 50 µM. For the same compound, on recombinant LstiGOBP2 (setting [1]), the activity at 20 µM came out at 83%.
`CC=CCCCO` [4-Hexen-1-ol]: on recombinant LstiGOBP2, the IC50 is 26 µM and the Ki was 15.3 µM. At recombinant LstiGOBP2 (setting [2]), the activity at 20 µM came out at 58%.
For the compound `C=CC(=C)CCC=C(C)C` [Myrcene], the activity at 20 µM at recombinant LstiGOBP2 (setting [2]) came to 56%. In addition, the Ki at recombinant LstiGOBP2 (setting [6]) is 14.7 µM. The IC50 on recombinant LstiGOBP2 (setting [7]) came to 25 µM.
Consider `O=Cc1ccccc1` [Benzaldehyde], for which the “EAG response (in words)” value with L. sticticalis antennae was “weak response”. Moreover, the IC50 on recombinant LstiGOBP2 (setting [3]) came to 19 µM. At recombinant LstiGOBP2 (setting [4]), the Ki is 11.2 µM. The activity at 20 µM at recombinant LstiGOBP2 (setting [5]) was found to be 48%.
